Experimental data: US8361959B2, “Spiro-imidazolone derivatives as glucagon receptor antagonists” (Merck Sharp & Dohme Corp., priority 2008, dated 2013)

Molecular target: T1, recombinant human glucagon receptor (Homo sapiens, UniProt P47871)
T1 construct: expressed in transfected cells; host or cells: CHO (Chinese hamster ovary) cells
Assay: Inhibition of glucagon-stimulated intracellular cAMP assay
Assay type: cell-based
Details: CHO cells expressing recombinant human glucagon receptor, stimulated with 300 pM glucagon, LANCE cAMP
Method: Inhibition of Glucagon-Stimulated Intracellular cAMP Assay
Chinese hamster ovary (CHO) cells expressing the recombinant human glucagon receptor were harvested with the aid of non-enzymatic cell dissociation solution (GIBCO 13151-014). The cells were then pelleted and suspended in the stimulation buffer (1×HBSS, 5 mM Hepes, 0.1% BSA, pH7.4 in presence of complete protease inhibitor and phosphodiesterase inhibitor). The adenylate cyclase assay was conducted following the LANCE cAMP Kit (Perkin Elmer, AD0262) instructions. Briefly, cells were preincubated with anti-cAMP antibody in the stimulation buffer with a final concentration of 3% DMSO for 30 minutes and then stimulated with 300 pM glucagon for 45 minutes. The reaction was stopped by incubating with the detection buffer containing Europium chelate of the Eu-SA/Biotin-cAMP tracer for 20 hours. The fluorescence intensity emitted from the assay was measured at 665 nm using PheraStar instruments. […] Standard cAMP concentrations were conducted concurrently for conversion of fluorescence signal to cAMP level. Data was analyzed using GraphPad Prism. IC50 values were calculated using non-linear regression analysis assuming single site competition. […] Some of the compounds of the invention shown in the examples measured less than about 5 μM in this assay; other examples measured less than about 500 nM; others less than about 100 nM. […]

T1 sequence (P47871 26-477): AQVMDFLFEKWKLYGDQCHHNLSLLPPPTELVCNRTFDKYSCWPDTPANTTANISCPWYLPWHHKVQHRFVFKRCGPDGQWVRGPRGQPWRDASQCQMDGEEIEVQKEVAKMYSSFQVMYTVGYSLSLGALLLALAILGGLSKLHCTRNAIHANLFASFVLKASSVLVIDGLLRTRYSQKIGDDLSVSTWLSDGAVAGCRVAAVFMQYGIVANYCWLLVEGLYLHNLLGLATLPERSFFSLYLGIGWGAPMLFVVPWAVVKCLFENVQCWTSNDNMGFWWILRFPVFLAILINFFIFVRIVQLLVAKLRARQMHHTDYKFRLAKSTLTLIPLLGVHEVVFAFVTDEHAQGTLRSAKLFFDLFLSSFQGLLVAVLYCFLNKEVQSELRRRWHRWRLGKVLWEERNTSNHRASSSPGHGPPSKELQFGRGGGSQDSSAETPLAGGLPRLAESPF

Row | IC50 | Structure (SMILES)
1 | 452 nM | CCC[C@H](c1ccc(C(=O)NCc2nn[nH]n2)cc1)N1C(=O)C(c2cccc(Cl)c2)=NC12CCC(C(C)(C)C)CC2 (some centres unmarked) [Example 1.156]
2 | 57 nM | CC(C)(C)C1CCC2(CC1)N=C(c1ccc(F)cc1)C(=O)N2[C@@H](c1ccc(C(=O)NCCC(=O)O)cc1)C1CC1 (some centres unmarked) [Example 1.212]
